Test results as given in ChEMBL document CHEMBL2331530, “Novel 3-O-carbamoyl erythromycin A derivatives (carbamolides) with activity against resistant staphylococcal and streptococcal isolates” (2013).
In brackets after ≈: the same amount, converted by molar mass.

What was measured:
Assay type in all cases: functional
Staphylococcus aureus [1] = experiment: Antibacterial activity against macrolides, lincosamides, streptogramin B and methicillin-resistant Staphylococcus aureus 1609-09 harboring cfr gene assessed as growth inhibition
Staphylococcus aureus [2] = experiment: Antibacterial activity against methicillin-resistant Staphylococcus aureus 1279-07 harboring cfr gene assessed as growth inhibition
Staphylococcus aureus [3] = experiment: Antibacterial activity against methicillin-resistant Staphylococcus aureus 1281-07 harboring cfr gene assessed as growth inhibition
Staphylococcus aureus [4] = experiment: Antibacterial activity against methicillin-resistant Staphylococcus aureus 2111-10-USA300 harboring cfr gene assessed as growth inhibition
Staphylococcus aureus [5] = experiment: Antibacterial activity against methicillin-resistant Staphylococcus aureus 1279-07-USA300 assessed as growth inhibition
[6] = system: Staphylococcus epidermidis; experiment: Antibacterial activity against macrolides, lincosamides, streptogramin B and methicillin-resistant Staphylococcus epidermidis 1105-00 assessed as growth inhibition
Streptococcus pyogenes = experiment: Antibacterial activity against macrolides, lincosamides, and streptogramin B-resistant Streptococcus pyogenes 1304-00 assessed as growth inhibition
Streptococcus pneumoniae = experiment: Antibacterial activity against macrolides, lincosamides, and streptogramin B-resistant Streptococcus pneumoniae 1243-00 assessed as growth inhibition
Staphylococcus aureus [7] = experiment: Antibacterial activity against Staphylococcus aureus ATCC 29213 assessed as growth inhibition
Staphylococcus aureus [8] = experiment: Antibacterial activity against macrolides, lincosamides, streptogramin B and methicillin-resistant Staphylococcus aureus 1015-00 assessed as growth inhibition

Row | Compound | MIC (Staphylococcus aureus [1]) | MIC (Staphylococcus aureus [2]) | MIC (Staphylococcus aureus [3]) | MIC (Staphylococcus aureus [4]) | MIC (Staphylococcus aureus [5]) | MIC [6] | MIC (Streptococcus pyogenes) | MIC (Streptococcus pneumoniae) | MIC (Staphylococcus aureus [7]) | MIC (Staphylococcus aureus [8])
1 | CC(=O)NC[C@H]1CN(c2ccc(N3CCOCC3)c(F)c2)C(=O)O1 [LINEZOLID] | 8 µg/mL (≈ 23.7 µM) | 0.5 µg/mL (≈ 1.48 µM) | 0.5 µg/mL (≈ 1.48 µM) | 0.5 µg/mL (≈ 1.48 µM) | 1 µg/mL (≈ 2.96 µM) | 8 µg/mL (≈ 23.7 µM) | 0.125 µg/mL (≈ 0.371 µM) | 0.125 µg/mL (≈ 0.371 µM) | 0.5 µg/mL (≈ 1.48 µM) | 8 µg/mL (≈ 23.7 µM)
2 | CC[C@H]1OC(=O)[C@H](C)[C@@H](OC(=O)N2CC(C)(C)C[C@@H]2c2cccc(Cl)c2)[C@H](C)[C@@H](O[C@@H]2O[C@H](C)C[C@H](N(C)C)[C@H]2O)[C@](C)(OC)C[C@@H](C)C(=O)[C@H](C)[C@H]2NC(=O)O[C@@]21C | > 64 µg/mL | 0.25 µg/mL (≈ 0.294 µM) | 0.125 µg/mL (≈ 0.147 µM) | 0.25 µg/mL (≈ 0.294 µM) | 0.25 µg/mL (≈ 0.294 µM) | 64 µg/mL (≈ 75.3 µM) | 0.03 µg/mL (≈ 0.0353 µM) | 0.03 µg/mL (≈ 0.0353 µM) | 0.25 µg/mL (≈ 0.294 µM) | > 64 µg/mL
3 | CC[C@H]1OC(=O)[C@H](C)[C@@H](OC(=O)N2CC(C)(C)C[C@@H]2c2ccc3c(c2)OCO3)[C@H](C)[C@@H](O[C@@H]2O[C@H](C)C[C@H](N(C)C)[C@H]2O)[C@](C)(OC)C[C@@H](C)C(=O)[C@H](C)[C@H]2NC(=O)O[C@@]21C | > 64 µg/mL | 0.25 µg/mL (≈ 0.291 µM) | 0.25 µg/mL (≈ 0.291 µM) | 0.25 µg/mL (≈ 0.291 µM) | 4 µg/mL (≈ 4.65 µM) | > 64 µg/mL | 2 µg/mL (≈ 2.33 µM) | 0.5 µg/mL (≈ 0.581 µM) | 0.25 µg/mL (≈ 0.291 µM) | > 64 µg/mL
4 | CC[C@H]1OC(=O)[C@H](C)[C@@H](OC(=O)N2CCC[C@@H]2c2cccnc2)[C@H](C)[C@@H](O[C@@H]2O[C@H](C)C[C@H](N(C)C)[C@H]2O)[C@](C)(OC)C[C@@H](C)C(=O)[C@H](C)[C@H]2NC(=O)O[C@@]21C | > 64 µg/mL | 16 µg/mL (≈ 20.3 µM) | 0.125 µg/mL (≈ 0.158 µM) | 0.25 µg/mL (≈ 0.317 µM) | 16 µg/mL (≈ 20.3 µM) | > 64 µg/mL | 0.5 µg/mL (≈ 0.634 µM) | 0.5 µg/mL (≈ 0.634 µM) | 0.25 µg/mL (≈ 0.317 µM) | > 64 µg/mL
5 | CC[C@H]1OC(=O)[C@H](C)[C@@H](O[C@H]2C[C@@](C)(OC)[C@@H](O)[C@H](C)O2)[C@H](C)[C@@H](O[C@@H]2O[C@H](C)C[C@H](N(C)C)[C@H]2O)[C@](C)(OC)C[C@@H](C)C(=O)[C@H](C)[C@@H](O)[C@]1(C)O [CLARITHROMYCIN] | 16 µg/mL (≈ 21.4 µM) | 0.5 µg/mL (≈ 0.668 µM) | 0.25 µg/mL (≈ 0.334 µM) | 0.5 µg/mL (≈ 0.668 µM) | 1 µg/mL (≈ 1.34 µM) | 8 µg/mL (≈ 10.7 µM) | 0.25 µg/mL (≈ 0.334 µM) | 0.125 µg/mL (≈ 0.167 µM) | 0.5 µg/mL (≈ 0.668 µM) | 16 µg/mL (≈ 21.4 µM)
6 | CC[C@H]1OC(=O)[C@H](C)[C@@H](OC(=O)N2CC(C)(C)C[C@@H]2c2cccc(Cl)c2Cl)[C@H](C)[C@@H](O[C@@H]2O[C@H](C)C[C@H](N(C)C)[C@H]2O)[C@](C)(OC)C[C@@H](C)C(=O)[C@H](C)[C@H]2NC(=O)O[C@@]21C | 64 µg/mL (≈ 72.3 µM) | 0.5 µg/mL (≈ 0.565 µM) | 0.25 µg/mL (≈ 0.283 µM) | 0.5 µg/mL (≈ 0.565 µM) | 2 µg/mL (≈ 2.26 µM) | 16 µg/mL (≈ 18.1 µM) | 1 µg/mL (≈ 1.13 µM) | 1 µg/mL (≈ 1.13 µM) | 0.5 µg/mL (≈ 0.565 µM) | 32 µg/mL (≈ 36.2 µM)
7 | CC[C@H]1OC(=O)[C@H](C)[C@@H](OC(=O)N2CC(C)(C)C[C@@H]2c2cccnc2)[C@H](C)[C@@H](O[C@@H]2O[C@H](C)C[C@H](N(C)C)[C@H]2O)[C@](C)(OC)C[C@@H](C)C(=O)[C@H](C)[C@H]2NC(=O)O[C@@]21C | > 64 µg/mL | – | – | – | > 64 µg/mL | 16 µg/mL (≈ 19.6 µM) | 0.03 µg/mL (≈ 0.0367 µM) | 0.03 µg/mL (≈ 0.0367 µM) | 4 µg/mL (≈ 4.9 µM) | > 64 µg/mL
8 | CC[C@H]1OC(=O)[C@H](C)[C@@H](OC(=O)N2CC(C)(C)C[C@@H]2c2ccc(Cl)cc2)[C@H](C)[C@@H](O[C@@H]2O[C@H](C)C[C@H](N(C)C)[C@H]2O)[C@](C)(OC)C[C@@H](C)C(=O)[C@H](C)[C@H]2NC(=O)O[C@@]21C | > 64 µg/mL | 0.25 µg/mL (≈ 0.294 µM) | 0.25 µg/mL (≈ 0.294 µM) | 0.25 µg/mL (≈ 0.294 µM) | 0.5 µg/mL (≈ 0.588 µM) | 64 µg/mL (≈ 75.3 µM) | 0.125 µg/mL (≈ 0.147 µM) | 0.125 µg/mL (≈ 0.147 µM) | 0.25 µg/mL (≈ 0.294 µM) | > 64 µg/mL
9 | CC[C@H]1OC(=O)[C@H](C)[C@@H](OC(=O)N2CCC[C@H]2c2ccccc2)[C@H](C)[C@@H](O[C@@H]2O[C@H](C)C[C@H](N(C)C)[C@H]2O)[C@](C)(OC)C[C@@H](C)C(=O)[C@H](C)[C@H]2NC(=O)O[C@@]21C | > 64 µg/mL | > 64 µg/mL | 0.5 µg/mL (≈ 0.635 µM) | 0.5 µg/mL (≈ 0.635 µM) | > 64 µg/mL | > 64 µg/mL | > 64 µg/mL | > 64 µg/mL | 2 µg/mL (≈ 2.54 µM) | > 64 µg/mL
10 | CC[C@H]1OC(=O)[C@H](C)[C@@H](OC(=O)N2CC(C)(C)C[C@@H]2c2ccc(Cl)cc2Cl)[C@H](C)[C@@H](O[C@@H]2O[C@H](C)C[C@H](N(C)C)[C@H]2O)[C@](C)(OC)C[C@@H](C)C(=O)[C@H](C)[C@H]2NC(=O)O[C@@]21C | 64 µg/mL (≈ 72.3 µM) | 0.25 µg/mL (≈ 0.283 µM) | 0.25 µg/mL (≈ 0.283 µM) | 0.25 µg/mL (≈ 0.283 µM) | 0.5 µg/mL (≈ 0.565 µM) | 8 µg/mL (≈ 9.04 µM) | 0.03 µg/mL (≈ 0.0339 µM) | 0.015 µg/mL (≈ 0.017 µM) | 0.25 µg/mL (≈ 0.283 µM) | 32 µg/mL (≈ 36.2 µM)
11 | CC[C@H]1OC(=O)[C@H](C)[C@@H](OC(=O)N2CC(C)(C)C[C@@H]2c2cccc3c2OCO3)[C@H](C)[C@@H](O[C@@H]2O[C@H](C)C[C@H](N(C)C)[C@H]2O)[C@](C)(OC)C[C@@H](C)C(=O)[C@H](C)[C@H]2NC(=O)O[C@@]21C | > 64 µg/mL | 0.125 µg/mL (≈ 0.145 µM) | 0.125 µg/mL (≈ 0.145 µM) | 0.125 µg/mL (≈ 0.145 µM) | 0.5 µg/mL (≈ 0.581 µM) | 16 µg/mL (≈ 18.6 µM) | 0.03 µg/mL (≈ 0.0349 µM) | 0.03 µg/mL (≈ 0.0349 µM) | 0.125 µg/mL (≈ 0.145 µM) | 64 µg/mL (≈ 74.4 µM)
12 | CC[C@H]1OC(=O)[C@H](C)[C@@H](OC(=O)N2CC(C)(C)C[C@@H]2c2ccc(Cl)c(Cl)c2)[C@H](C)[C@@H](O[C@@H]2O[C@H](C)C[C@H](N(C)C)[C@H]2O)[C@](C)(OC)C[C@@H](C)C(=O)[C@H](C)[C@H]2NC(=O)O[C@@]21C | 64 µg/mL (≈ 72.3 µM) | 0.25 µg/mL (≈ 0.283 µM) | 0.25 µg/mL (≈ 0.283 µM) | 0.25 µg/mL (≈ 0.283 µM) | 2 µg/mL (≈ 2.26 µM) | 64 µg/mL (≈ 72.3 µM) | 0.125 µg/mL (≈ 0.141 µM) | 0.125 µg/mL (≈ 0.141 µM) | 0.25 µg/mL (≈ 0.283 µM) | 64 µg/mL (≈ 72.3 µM)
13 | CC[C@H]1OC(=O)[C@H](C)[C@@H](OC(=O)N2CC(C)(C)C[C@@H]2c2ccccc2Cl)[C@H](C)[C@@H](O[C@@H]2O[C@H](C)C[C@H](N(C)C)[C@H]2O)[C@](C)(OC)C[C@@H](C)C(=O)[C@H](C)[C@H]2NC(=O)O[C@@]21C | 64 µg/mL (≈ 75.3 µM) | 0.25 µg/mL (≈ 0.294 µM) | 0.25 µg/mL (≈ 0.294 µM) | 0.25 µg/mL (≈ 0.294 µM) | 2 µg/mL (≈ 2.35 µM) | 64 µg/mL (≈ 75.3 µM) | 0.25 µg/mL (≈ 0.294 µM) | 0.25 µg/mL (≈ 0.294 µM) | 0.25 µg/mL (≈ 0.294 µM) | 64 µg/mL (≈ 75.3 µM)
14 | CC[C@H]1OC(=O)[C@H](C)[C@@H](OC(=O)N2CCC[C@@H]2c2ccccc2)[C@H](C)[C@@H](O[C@@H]2O[C@H](C)C[C@H](N(C)C)[C@H]2O)[C@](C)(OC)C[C@@H](C)C(=O)[C@H](C)[C@H]2NC(=O)O[C@@]21C | > 64 µg/mL | > 64 µg/mL | 0.25 µg/mL (≈ 0.317 µM) | > 64 µg/mL | > 64 µg/mL | > 64 µg/mL | > 64 µg/mL | > 64 µg/mL | 0.5 µg/mL (≈ 0.635 µM) | > 64 µg/mL
15 | CC[C@H]1OC(=O)[C@H](C)[C@@H](OC(=O)N2CCCC2)[C@H](C)[C@@H](O[C@@H]2O[C@H](C)C[C@H](N(C)C)[C@H]2O)[C@](C)(OC)C[C@@H](C)C(=O)[C@H](C)[C@H]2NC(=O)O[C@@]21C | 16 µg/mL (≈ 22.5 µM) | 16 µg/mL (≈ 22.5 µM) | 32 µg/mL (≈ 45 µM) | 16 µg/mL (≈ 22.5 µM) | 2 µg/mL (≈ 2.81 µM) | 1 µg/mL (≈ 1.4 µM) | 0.5 µg/mL (≈ 0.702 µM) | 0.5 µg/mL (≈ 0.702 µM) | 4 µg/mL (≈ 5.62 µM) | 4 µg/mL (≈ 5.62 µM)
